In ChEMBL document CHEMBL1124530, “Dimethylsulfonium analogues of the muscarinic agent McN-A-343: [4-[[N-(3- or 4-halophenyl)carbamoyl]oxy]-2-butynyl] dimethylsulfonium perchlorates” (1989):
Active and inactive are the calls of the source.

What was measured:
[1] = target: T1, Muscarinic acetylcholine receptor (Homo sapiens) (UniProt P20309+P08173+P11229+P08172+P08912); assay: Tested in vitro for agonistic activity of compound towards muscarinic receptor in the concentration range of 1xe-6 to 1xe-4 M of guinea pig ileum; Inactive; type: functional, tissue-based; settings: Cavia porcellus, target entry is the homologue from another species
Rattus norvegicus [2] = assay: Ganglionic muscarinic activity was determined by the changes in mean arterial blood pressure of the pithed rat treated with to produce a half-maximal pressure response up i.v. administration; type: functional; settings: iv
Rattus norvegicus [3] = assay: Ganglionic muscarinic activity was determined by the changes in mean arterial blood pressure of the pithed rat treated with to produce a half-maximal pressure response up i.v. administration; Inactive when assayed a dose range of 1-10 umol/Kg; type: functional, organism-based
[4] = target: T1, Muscarinic acetylcholine receptor (Homo sapiens); assay: Tested in vitro for agonistic activity of compound towards muscarinic receptor in the concentration range of 1xe-6 to 1xe-4 M of guinea pig ileum; Responce varied in the range 17- 40%; type: functional, tissue-based; settings: Cavia porcellus, filed as partial agonist, target entry is the homologue from another species
[5] = Equipotent molar ratio relative to carbachol for nicotininc activity in frog was determined; type: functional

| Max respose [1] | SMILES | ED50 (Rattus norvegicus [2]) [µmol/kg] | ED50 (Rattus norvegicus [3]) | Max respose [4] | Ratio [5] |
| --- | --- | --- | --- | --- | --- |
| inactive | C[S+](C)CC#CCOC(=O)Nc1cccc(Cl)c1.[O-][Cl+3]([O-])([O-])[O-] | 1.49 | – | – | – |
| – | CN(C)CC#CCOC(=O)Nc1ccc(Br)cc1 | – | Inactive when assayed a dose range of 1-10 umol/Kg | – | – |
| – | CN(C)CC#CCOC(=O)Nc1cccc(Br)c1 | – | Inactive when assayed a dose range of 1-10 umol/Kg | – | – |
| inactive | C[S+](C)CC#CCOC(=O)Nc1ccc(Cl)cc1.[O-][Cl+3]([O-])([O-])[O-] | 1.52 | – | – | – |
| inactive | C[S+](C)CC#CCOC(=O)Nc1cccc(Br)c1.[O-][Cl+3]([O-])([O-])[O-] | 1.47 | – | – | – |
| inactive | C[S+](C)CC#CCOC(=O)Nc1ccc(Br)cc1.[O-][Cl+3]([O-])([O-])[O-] | 1.56 | – | – | – |
| – | C[N+](C)(C)CC#CCOC(=O)Nc1ccc(Br)cc1 | 0.22 | – | Partial agonist | 3.7 |
| – | C[N+](C)(C)CC#CCOC(=O)Nc1cccc(Cl)c1 | 0.59 | – | – | – |
| – | C[N+](C)(C)CC#CCOC(=O)Nc1cccc(Br)c1 | 0.7 | – | Partial agonist | 4 |
